Usually bioavailability stands for the share of a dose that reaches the circulation, judged against a reference dose that is usually intravenous. Higher therefore signals much systemic uptake. A word on the TD50: it is the 50% point of the dose-response relation for the toxic effect studied. Read a high TD50 as lower toxicity.

A short description of series [1]: bioavailability in rats. The note with it: rat, in vivo.
A short description of series [2]: chimney test (motor discoordination). The format is in vivo. As to conditions: ip, higher ED50 is better, as it indicates lower activity in inducing motor discoordination. As for the experimental part: The chimney test was performed according to the method of Poissier, Jr., et al. Med. Exp. 3: 81-84 (1960). The higher the ED50 value in the chimney test the better, since this indicates a lower activity in inducing motor discoordination.

Series [3] deals with benzodiazepine receptor. The series can be described thus: in vivo binding test (reduction of specific flunitrazepam binding in a living brain). As to conditions: dose reducing specific binding of flunitrazepam to the benzodiazepine receptor in a living brain to 50% of the control value. The text has this: The ED50 in vivo value represents the dose of a test compound effecting a reduction in specific binding of flunitrazepam to the benzodiazepine receptor in a living brain to 50% of the control value.

`CCOC(=O)c1ncc2[nH]c3ccc(OCc4ccccc4)cc3c2c1COC` [A, 6-benzyloxy-4-methoxymethyl-beta-carboline-3-carboxylic acid ethyl ester] displayed a bioavailability in series [1] of 17%. In series [2], this compound had a TD50 of 12.1 mg/kg. The “ED50 mg/kg in vivo” value in series [3] is given as 5.6 mg/kg.
In turn, `COCc1c(C(=O)OC(C)C)ncc2[nH]c3ccc(OCc4ccccc4)cc3c12` [B, 6-benzyloxy-4-methoxymethyl-beta-carboline-3-carboxylic acid ispropyl ester] had a bioavailability in series [1] of 32%. In addition, the TD50 in series [2] was above 50 mg/kg. Besides, the “ED50 mg/kg in vivo” value in series [3] stood at 0.4 mg/kg.

The values above are taken from patent US5700808A, “5- or 6-substituted β-carboline-3-carboxylic acid esters” (Schering Aktiengesellschaft, priority 1986, dated 1997).
